Reference: PubChem BioAssay (NCI)
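Dose response: 5 concentrations. Exposure: 48 h. Format: 96-well plates. Endpoint: linear interpolation; highest concentration if not reached. Definition used: TGI = concentration required for complete inhibition of growth.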

How the values were obtained:
Assay in all cases: growth of human tumour cells (NCI), 48 h
786-0 renal = tested on: 786-0 renal
A549 NSCLC = tested on: A549 NSCLC
CAKI-1 renal = tested on: CAKI-1 renal
EKVX NSCLC = tested on: EKVX NSCLC
MDA-N = tested on: MDA-N
NCI-H226 lung = tested on: NCI-H226 lung
SF-268 CNS = tested on: SF-268 CNS
SK-MEL-28 melanoma = tested on: SK-MEL-28 melanoma
SNB-75 CNS = tested on: SNB-75 CNS
U251 CNS = tested on: U251 CNS

Row | SMILES | TGI (786-0 renal) | TGI (A549 NSCLC) | TGI (CAKI-1 renal) | TGI (EKVX NSCLC) | TGI (MDA-N) | TGI (NCI-H226 lung) | TGI (SF-268 CNS) | TGI (SK-MEL-28 melanoma) | TGI (SNB-75 CNS) | TGI (U251 CNS)
1 | O=C(NCc1ccccc1Cl)c1c(O)c2ccccc2[nH]c1=O | 36.5 µM | > 100 µM | 96.6 µM | > 100 µM | > 100 µM | > 100 µM | > 100 µM | > 100 µM | 52.2 µM | 40.7 µM
2 | CCCCCCCc1ccc(-c2nnc(N=Nc3ccc(OCCCCC)cc3)s2)s1 | > 100 µM | > 100 µM | > 100 µM | > 100 µM | > 100 µM | > 100 µM | > 100 µM | > 100 µM | > 100 µM | > 100 µM
3 | COc1ccc(CC[N+]2(C)COc3cc4oc(=O)cc(C)c4cc3C2)cc1OC (stereo not given) | > 100 µM | > 100 µM | > 100 µM | > 100 µM | > 100 µM | > 100 µM | > 100 µM | > 100 µM | > 100 µM | > 100 µM
4 | S=c1[nH]nc(CCCCCCCCc2n[nH]c(=S)o2)o1 | > 100 µM | > 100 µM | > 100 µM | > 100 µM | > 100 µM | > 100 µM | > 100 µM | > 100 µM | > 100 µM | > 100 µM
5 | CSc1nc[nH]c1C(N)=S | > 100 µM | > 100 µM | > 100 µM | > 100 µM | > 100 µM | > 100 µM | > 100 µM | > 100 µM | > 100 µM | > 100 µM
6 | COc1ccc(N=Nc2c(N)nn3c(SC)c(C#N)c(N)nc23)cc1 | 14.2 µM | 36.9 µM | 23.5 µM | 21.3 µM | 26.7 µM | 40.7 µM | 11.4 µM | 18.8 µM | 40.6 µM | 19.5 µM
7 | C=CCN1C(=O)CC(=O)N(NC2=NNC3(C(=O)N2)c2ccccc2-c2ccccc23)C1=S | > 100 µM | > 100 µM | > 100 µM | > 100 µM | > 100 µM | 82.5 µM | > 100 µM | > 100 µM | > 100 µM | > 100 µM
8 | C/C(Nc1ccc(Cl)cc1)=C1/CCOC1=O | > 100 µM | > 49 µM | > 100 µM | > 100 µM | > 100 µM | > 100 µM | > 100 µM | > 100 µM | > 100 µM | > 100 µM
9 | Cc1cc(=O)n2nc(CSc3nnc(Sc4cc(O)ccc4O)s3)sc2n1 | > 100 µM | > 100 µM | > 100 µM | > 100 µM | 32.8 µM | > 100 µM | > 100 µM | > 100 µM | > 100 µM | > 100 µM
10 | CCOC(=O)C1CCC(=O)N1C(=O)c1ccc(Cl)cc1 (stereo not given) | > 100 µM | > 100 µM | > 100 µM | > 100 µM | > 100 µM | > 100 µM | > 100 µM | > 100 µM | > 100 µM | > 100 µM
11 | COc1ccc(/C=N/Nc2nnc3c(n2)c2ccccc2c2nn(-c4ccccc4Cl)nc23)cc1 | > 100 µM | > 100 µM | > 100 µM | > 100 µM | > 100 µM | > 100 µM | > 100 µM | > 100 µM | > 100 µM | > 100 µM
12 | COC(=O)c1ccccc1C1CN=NC12Cc1c(C)ccc(C)c1C2=O (stereo not given) | > 100 µM | > 100 µM | > 100 µM | > 100 µM | > 100 µM | > 100 µM | > 100 µM | > 100 µM | > 100 µM | > 100 µM
13 | COC(=O)[C@@H]1COC(=O)N1 | > 100 µM | > 100 µM | > 100 µM | > 100 µM | > 100 µM | > 100 µM | > 100 µM | > 100 µM | > 100 µM | > 100 µM
14 | COc1ccc(/C(CC2OC(=O)c3ccccc32)=N\NC(N)=O)cc1 (stereo not given) | > 100 µM | > 100 µM | > 100 µM | > 100 µM | > 100 µM | > 100 µM | > 100 µM | > 100 µM | > 100 µM | > 100 µM
15 | COc1cc(/C=C2/Oc3c(OC)cccc3C2=O)ccc1O | > 100 µM | > 100 µM | > 100 µM | > 100 µM | > 100 µM | > 100 µM | > 100 µM | > 100 µM | > 100 µM | > 100 µM
16 | Cc1ccc(NCCN(C)C)c2c(=O)c3cc(O)ccc3sc12 | 9.07 µM | 8.08 µM | 11.6 µM | 27.6 µM | 4.58 µM | 15.2 µM | 15.6 µM | 12.5 µM | 9.24 µM | 8.49 µM
17 | Cc1cc(C)nc(NS(=O)(=O)c2ccc(Nc3c4ccccc4nc4ccc(C(=O)Nc5ccc(S(=O)(=O)N=C(N)N)cc5)cc34)cc2)n1 | 53 µM | > 100 µM | > 100 µM | > 100 µM | > 100 µM | > 100 µM | > 100 µM | > 100 µM | > 100 µM | > 100 µM
18 | CCCCCCCCCCCCC1N=C(N)N2CCCC2=C1C(=O)OC (stereo not given) | 3.04 µM | 36.2 µM | 9.03 µM | 35.4 µM | 4.72 µM | 48.8 µM | 14.8 µM | 3.1 µM | 3.05 µM | 3.06 µM
